Measured values: US20080226685A1, “Product and Method for Controlling Flying Insects” (Reckitt Benckiser (Australia) Pty Limited, priority 2003, published 2008)
Where two headings read alike, the source gives them in different places.

How the values were obtained:
Aedes aegypti mosquitoes = assay: Knockdown studies in a 40 m^3 test chamber with paper dosed with metofluthrin; assay type: in vivo
Procedure: The inventors have carried out a number of knockdown studies for the control of mosquitoes using paper surfaces impregnated and/or dosed with the vapour active insecticide metofluthrin. The active was applied to each paper surface as a solution in acetone/ethanol (1:1).
Tests were carried out in a 40 m^3 test chamber. The temperature was approximately 28° C. Mixed sex Aedes aegypti mosquitoes were used, aged for 7-10 days after emergence. Up to 200 mosquitoes were introduced into the chamber for each test. Three replicates were done for each treatment. Knocked down mosquitoes were collected at the end of each assessment period and counted.
Knockdown studies against the Dengue mosquito Aedes aegypti using three surface areas a) A2, b) A3 and c) A4 of 18 gsm paper in the above test chamber were carried out. Each paper was treated with 150 mg of metofluthrin. A mosquito coil containing 0.04% Prallethrin was included as a reference control.
A knockdown study against the Dengue mosquito Aedes aegypti using aged paper was conducted. The test involved treating 18 gsm paper of A4 surface area with 2 mg of metofluthrin at 28° C. for up to 12 hours. The treated paper was hung in the centre of the above chamber. A mosquito coil containing 0.04% prallethrin was included in the trial as a reference control.

[1] = Emanation rate from 50 gsm A4 paper dosed with different amounts (Example 6); assay type: physicochemical; conditions: A4 50 gsm paper, dry dosing in acetone/ethanol (1:1), 25 mg to approximately 5 mg, 28° C., low air flow
Procedure: A study involving dosing 50 gsm paper with different amounts of metofluthrin was made to investigate the affect on the emanation rate from this substrate. Three samples of white (A4) paper (50 gsm) each having a surface area of 1250 cm^2 were dosed with metofluthrin (25, 20 and 14 mg) dissolved in acetone/ethanol (1:1) using the dry dosing technique. The papers were aged in a chamber at 28° C. with low air flow for up to a maximum of 214 hours. The amount of metofluthrin remaining on the paper substrate was measured from time 0 hours to 214 hours. The plot obtained for the emanation rate of metofluthrin from the 25 mg dosed samples was used to estimate the time it would take for 20 and 14 mg of metofluthrin to remain on the samples.

[2] = Emanation rate from 18 gsm paper honeycomb, wet dosed in Norpar 12 (Example 7); assay type: physicochemical; conditions: 30 mg on 18 gsm honeycomb, estimated surface area 2199 cm^2, wet dosed in Norpar 12, 28° C., low airflow
Procedure: A study involving dosing 18 gsm paper configured into a honeycomb format with an estimated surface area of 2199 cm^2 with metofluthrin (30 mg) was made to determine the emanation rate from this substrate.
The metofluthrin was dissolved in Norpar 12 and dosed on to the substrate using the wet dosing technique. The papers were hung and aged in a chamber at 28° C. with low airflow for up to a maximum of 80 hours. The amount of metofluthrin remaining on the paper substrate was measured from time 0 hours to 80 hours. The plot obtained for the amount of metofluthrin remaining on samples as a function of time was used to calculate the release rate from this format.

[3] = Emanation rate from 30 gsm paper dosed with different solvents (Example 8); assay type: physicochemical; conditions: 14 mg on A4 30 gsm paper, 28° C.
Procedure: A study of the metofluthrin emanation rate from 30 gsm paper dosed with different solvents was made.
White (A4) paper (30 gsm) having a surface area of […] was dosed with metofluthrin (14 mg) prepared in a range of solvents, as listed below. The papers were aged in a chamber at 28° C. with low air flow for up to a maximum of 168 hours. The amount of metofluthrin remaining on the paper substrate was measured from time 0 hours to 168 hours. The following solvents were used:
The inventors have concluded that linear release kinetics are observed for metofluthrin emanating from paper substrates and accordingly, the line of best fit was fitted to obtain the linear equation to enable the rate of emanation to be determined.

[4] = Emanation rate from 18 gsm paper dosed with different solvents (Example 9); assay type: physicochemical; conditions: 14 mg on A4 18 gsm tissue paper, 28° C.
Procedure: A study of the metofluthrin emanation rate from 18 gsm paper dosed with different solvents was made.
Tissue paper (18 gsm) having an effective surface area of 1250 cm^2 (A4) was dosed with metofluthrin (14 mg) prepared in a range of solvents. The papers were then aged in a chamber at 28° C. with low airflow for up to a maximum of 168 hours. The amount of metofluthrin remaining on the paper substrate was measured from time 0 hours to 168 hours. The following solvents were used:
The inventors have concluded that linear release kinetics are observed for metofluthrin emanating from paper substrates and accordingly, the line of best fit was fitted to obtain the linear equation to enable the rate of emanation to be determined: […]

[5] = Stability and packaging suitability, storage at 55° C. (Example 10); assay type: physicochemical
Procedure: The stability and packaging suitability of various materials was studied. In these studies, metofluthrin (14 mg) was applied to A4 sized 30 gsm paper substrates via wet and dry application at ambient temperature. The samples were placed in pouches prepared from the packaging materials under investigation, sealed tightly and stored at 55° C. After periods of one and two weeks, samples were removed from storage and the dosed paper substrates were measured for metofluthrin content. The packaging materials studied were glass, PVC, amorphous PET (APET), crystalline PET (CPET), aluminium foil, heat sealable polyester films, acrylonitrile methyl acrylate copolymer and PEPET. For the wet dosing of metofluthrin on the paper substrate, the metofluthrin was dissolved in Exxsol D80 or Norpar 12 and the resulting solution applied to the substrate. For dry application, the metofluthrin was dissolved in acetone/ethanol (1:1 by volume) and applied to the substrate. The solvent was then allowed to evaporate over a period of 5-10 minutes.

[6] = cited from earlier work

CC=CC1C(C(=O)OCc2c(F)c(F)c(COC)c(F)c2F)C1(C)C (racemic) [metofluthrin, 2,3,5,6-tetrafluoro-4-(methoxymethyl)benzyl-(EZ)-(1RS,3RS;1RS,3SR)-2,2-dimethyl-3-(prop-1-enyl)cyclopropanecarboxylate]
knockdown (Aedes aegypti mosquitoes; 2 mg on A4 18 gsm paper aged at 28° C., for up to 4 hours, 40 m^3 chamber): greater than 40%
effectiveness relative to control (mosquito coil 0.04% prallethrin) (Aedes aegypti mosquitoes; 2 mg on A4 18 gsm paper, at 4 hours of aging at 28° C.): twice as effective as the control
knockdown effectiveness compared with reference control (Aedes aegypti mosquitoes; A2, A3 and A4 18 gsm paper each treated with 150 mg, 40 m^3 chamber, approx. 28° C., control = mosquito coil containing 0.04% Prallethrin): more effective than the control
emanation rate when varying initial amount dosed [1]: constant
emanation rate [2]: 0.22 mg/h
Release Rate Index ([3]; solvent Acetone/ethanol (1:1), dry dosing (reference = 1)): 1.00
Release Rate Index ([3]; solvent Exxsol D40, wet dosing, relative to acetone/ethanol): 1.40
Release Rate Index ([3]; solvent Exxsol D80, wet dosing, relative to acetone/ethanol): 1.41
Release Rate Index ([3]; solvent Exxsol D140, wet dosing, relative to acetone/ethanol): 0.25
Release Rate Index ([3]; solvent HoTung C11-14, wet dosing, relative to acetone/ethanol): 1.37
Release Rate Index ([3]; solvent Isopar G, wet dosing, relative to acetone/ethanol): 1.58
Release Rate Index ([4]; solvent Dowanol DPM, wet dosing, relative to acetone/ethanol): 1.20
Release Rate Index ([4]; solvent Dowanol TPM, wet dosing, relative to acetone/ethanol): 1.24
Release Rate Index ([4]; solvent Isopar L, wet dosing, relative to acetone/ethanol): 1.75
Release Rate Index ([4]; solvent Sasol C12-13, wet dosing, relative to acetone/ethanol): 1.63
Release Rate Index ([4]; solvent acetone/ethanol (1:1), dry dosing (reference = 1)): 1.00
Release Rate Index ([4]; solvent n-pentane, dry dosing, relative to acetone/ethanol): 1.50
metofluthrin recovered from paper substrate (%) ([5]; packaging APET, dry dosing, acetone/ethanol (1:1), 1 week at 55° C.): 87%
metofluthrin recovered from paper substrate (%) ([5]; packaging APET, dry dosing, acetone/ethanol (1:1), 2 weeks at 55° C.): 82%
metofluthrin recovered from paper substrate (%) ([5]; packaging APET, wet dosing, Exxsol D80, 1 week at 55° C.): 95%
metofluthrin recovered from paper substrate (%) ([5]; packaging APET, wet dosing, Exxsol D80, 2 weeks at 55° C.): 100%
metofluthrin recovered from paper substrate (%) ([5]; packaging Acrylonitrile methyl acrylate copolymer, wet dosing, Norpar 12, 1 week at 55° C.): 98%
metofluthrin recovered from paper substrate (%) ([5]; packaging Acrylonitrile methyl acrylate copolymer, wet dosing, Norpar 12, 2 weeks at 55° C.): 99%
metofluthrin recovered from paper substrate (%) ([5]; packaging Aluminium foil, dry dosing, acetone/ethanol (1:1), 1 week at 55° C.): 99%
metofluthrin recovered from paper substrate (%) ([5]; packaging Aluminium foil, dry dosing, acetone/ethanol (1:1), 2 weeks at 55° C.): 98%
metofluthrin recovered from paper substrate (%) ([5]; packaging Aluminium foil, wet dosing, Exxsol D80, 1 week at 55° C.): 99%
metofluthrin recovered from paper substrate (%) ([5]; packaging Aluminium foil, wet dosing, Exxsol D80, 2 weeks at 55° C.): 100%
metofluthrin recovered from paper substrate (%) ([5]; packaging CPET, dry dosing, acetone/ethanol (1:1), 1 week at 55° C.): 98%
metofluthrin recovered from paper substrate (%) ([5]; packaging CPET, dry dosing, acetone/ethanol (1:1), 2 weeks at 55° C.): 99%
metofluthrin recovered from paper substrate (%) ([5]; packaging CPET, wet dosing, Exxsol D80, 1 week at 55° C.): 96%
metofluthrin recovered from paper substrate (%) ([5]; packaging CPET, wet dosing, Exxsol D80, 2 weeks at 55° C.): 100%
metofluthrin recovered from paper substrate (%) ([5]; packaging Glass (bottle), dry dosing, acetone/ethanol (1:1), 1 week at 55° C.): 90%
metofluthrin recovered from paper substrate (%) ([5]; packaging Glass (bottle), dry dosing, acetone/ethanol (1:1), 2 weeks at 55° C.): 81%
metofluthrin recovered from paper substrate (%) ([5]; packaging Glass (bottle), wet dosing, Exxsol D80, 1 week at 55° C.): 100%
metofluthrin recovered from paper substrate (%) ([5]; packaging Glass (bottle), wet dosing, Exxsol D80, 2 weeks at 55° C.): 98%
metofluthrin recovered from paper substrate (%) ([5]; packaging PEPET, wet dosing, Norpar 12, 1 week at 55° C.): 78%
metofluthrin recovered from paper substrate (%) ([5]; packaging PEPET, wet dosing, Norpar 12, 2 weeks at 55° C.): 77%
metofluthrin recovered from paper substrate (%) ([5]; packaging PVC, dry dosing, acetone/ethanol (1:1), 1 week at 55° C.): 64%
metofluthrin recovered from paper substrate (%) ([5]; packaging PVC, dry dosing, acetone/ethanol (1:1), 2 weeks at 55° C.): 46%
metofluthrin recovered from paper substrate (%) ([5]; packaging PVC, wet dosing, Exxsol D80, 1 week at 55° C.): 73%
metofluthrin recovered from paper substrate (%) ([5]; packaging PVC, wet dosing, Exxsol D80, 2 weeks at 55° C.): 44%
metofluthrin recovered from paper substrate (%) ([5]; packaging heat sealable polyester films, dry dosing, acetone/ethanol (1:1), 2 weeks at 55° C.): 92%
metofluthrin recovered from paper substrate (%) ([5]; packaging heat sealable polyester films, wet dosing, Exxsol D80, 2 weeks at 55° C.): 100%

CC1(C)[C@H](C=C(Cl)Cl)[C@H]1C(=O)OCc1c(F)c(F)c(F)c(F)c1F [fenfluthrin]
vapour pressure (volatility at ambient temperature) ([6]; 20° C.): 1 mPa

C#CC(OC(=O)C1C(C=C(C)C)C1(C)C)/C(C)=C/CC (centres unmarked) [empenthrin]
vapour pressure (volatility at ambient temperature) ([6]; 23.6° C.): 14 mPa

Cc1c(F)c(F)c(COC(=O)[C@@H]2[C@H](/C=C(\Cl)C(F)(F)F)C2(C)C)c(F)c1F (racemic) [tefluthrin]
vapour pressure (volatility at ambient temperature) ([6]; 20° C.): 8.4 mPa
vapour pressure (volatility at ambient temperature) ([6]; 40° C.): 50 mPa
